In patent publication US20100292287A1, “Periodontitis treatment” (priority 2009, published 2010):

Legend:
[1] = tested on: diabetic Sprague Dawley rats injected with lipopolysaccharide from Porphyromonas gingivalis; assay: LPS-induced periodontitis (alveolar bone loss, root/enamel ratio) in streptozotocin diabetic rats fed ARI diets; type: in vivo, rat; conditions: for ratio of exposed root to enamel area, LPS side: LPS injected (right) side; for ratio of exposed root to enamel area, LPS side / ratio of exposed root to enamel area, PBS side: mean±S.E.M.; for ratio of exposed root to enamel area, PBS side: PBS injected (left, internal control) side
Description: A group of 80 approximately 81-100 g male Sprague Dawley rats were utilized for this study. Diabetes was induced in 40 of these rats by tail vein injection of 75 mg/kg of streptozotocin. After 3 days, blood glucose (BG) levels in blood obtained from tail vein lacerations were analyzed with a commercial glucometer (Freestyle by TheraSense, Alameda, Calif.). Each rat with BG levels <300 mg/dL were reinjected with streptozotocin. Again, BGs were measured after 3 days, and the procedure was repeated a third time for remaining rats with BGs <300 mg/dL.
(§1) All rats with blood glucose levels >300 mg/dL were then equally divided into 4 groups. The first diabetic group of 8 rats received standard rat diet (BioServe), the second received similar rat diet containing 0.015% of tolrestat, the third group received similar diet containing 0.0125% imirestat, and the fourth group received similar diet containing 0.08% quercetin. Experimental diets were initiated 10 days following initial streptozotocin injections and continued for 10 weeks until the studies were terminated. Non-diabetic age-matched rats were also added as additional non-diabetic controls. These consisted of 4 groups of 8 rats each as follows: an untreated non-diabetic group received standard rat diet, the second control group received similar rat diet containing 0.015% of tolrestat, the third control group received similar diet containing 0.0125% imirestat, and the fourth control group received similar diet containing 0.08% quercetin.
A maximum of 3 rats were housed per cage. Weekly consumption of diet/cage and body weights of each cage occupant was measured throughout the study. Drugs diets were prepared by adding the appropriate weight of drug to 3 kg portions of standard rat chow as follows. The weighed drug dissolved in 400 mL of ethanol was uniformly sprayed onto a monolayer of the rat chow. After the upper layer of chow was uniformly wetted, the chow was mixed and again formed into a monolayer, and the procedure was repeated until the entire drug solution was utilized. Following overnight oven drying to ensure that all solvent was removed, weighed amounts of diet were administered to each appropriate group of animals.
(§2) Forty-four days after initiation of diets, each rat was anesthetized with 4% isoflurane vapor in an induction chamber. Each rat was then placed on its back and the palatal gingiva between the first and second maxillary molars on the right side was injected with 10 μL of a phosphate-buffered saline (PBS) solution containing 1 mg/mL lipopolysaccharide LPS from Porphyromonas gingivalis (InvivoGen, San Diego, Calif.) using an insulin syringe equipped with a blunted edge 30-gauge needle to induce the formation of periodontitis. As a control, 10 μL of PBS was similarly injected into the left side of the jaw. This injection was followed by two additional injections at 48-hour intervals. Twenty-four days after the final injection, all rats were euthanized with carbon dioxide gas. The heads were decapitated with a guillotine and frozen for subsequent defleshing. Blood from each rat was obtained by heart puncture and HbA1c levels were measured using the Metrika A1cNOW Plus System Test Strips (Fisher Healthcare).
Each thawed head was manually defleshed using standard dental instruments by Dr. James O'Meara, Assoc. Professor of General Dentistry at Creighton University of Omaha, Nebr. The maxillary area was separated from the remaining skull using bone cutters, and each defleshed left and right maxillary alveolus with molars were stored in PBS buffer. Finally, all cleaned maxillary alveoli were placed in 3% aqueous peroxide solution overnight and air dried. They were then stained in 5% aqueous toluidine blue to identify the cemento-enamel junction (CEJ) on the molars. After air drying, each stained preparation was examined under a dissecting microscope and cleaned of any remaining flesh particles using the tip of a 20-gauge needle. […]

[2] = tested on: non-diabetic Sprague Dawley rats injected with lipopolysaccharide from Porphyromonas gingivalis; assay: LPS-induced periodontitis (alveolar bone loss, root/enamel ratio) in non-diabetic rats fed ARI diets; type: in vivo, rat; conditions: for ratio of exposed root to enamel area, LPS side / ratio of exposed root to enamel area, PBS side: non-diabetic rats; for ratio of exposed root to enamel area, LPS side: first value of 'LPS and PBS sides ... respective ratios'; for ratio of exposed root to enamel area, PBS side: second value of 'LPS and PBS sides ... respective ratios'; for difference in the ratios between the LPS and PBS sides: normal (non-diabetic) rats, FIG. 7
Description: as §1, §2
Each thawed head was manually defleshed using standard dental instruments by Dr. James O'Meara, Assoc. Professor of General Dentistry at Creighton University of Omaha, Nebr. The maxillary area was separated from the remaining skull using bone cutters, and each defleshed left and right maxillary alveolus with molars were stored in PBS buffer. Finally, all cleaned maxillary alveoli were placed in 3% aqueous peroxide solution overnight and air dried. They were then stained in 5% aqueous toluidine blue to identify the cemento-enamel junction (CEJ) on the molars. After air drying, each stained preparation was examined under a dissecting microscope and cleaned of any remaining flesh particles using the tip of a 20-gauge needle. Each palatal preparation was then placed onto a 20 mm petri dish containing ultrafine chromatography grade silica and a mm ruler. The maxilla-molar area palatal sides were then photographed using a PAXcam2+ USB2 Digital Microscope Camera attached to a Zeiss dissection microscope at 40' magnification. 2.0 MP images were captured with 1616×1216 image resolution. The images were analyzed using Pax-it software (Paxcam, Chicago, Ill.). Care was taken to obtain images with consistent camera angles.
In each image the two molars between which the injections were made were analyzed. The exposed side of each molar was manually outlined along with the area encompassed by the cemento-enamel junction (CEJ) and exposed root area. To facilitate differentiation of the exposed root area and the CEJ, each photograph was photo-enhanced as required using sharpening or desaturating techniques. Multiple tracings were obtained and averaged for each image. Moreover, since tooth movement can also increase variability, multiple images of the same sample were also analyzed, if necessary. The area measurements from both molars were combined, and from these combined area measurements, a ratio of exposed root area (root to the CEJ) versus enamel area was obtained. […]

[3] = commercial version (Alredase), withdrawn 1996 or 1997; cited from earlier work
TNF-α = biological target: T1, TNF-α (Mus musculus, UniProt P06804); conditions: diabetic mice inoculated with Porphyromonas gingivalis; cited from earlier work
T1 construct: host or cells: diabetic mice (in vivo, endogenous TNF-α)
T1 sequence (P06804 80-235 limits assumed): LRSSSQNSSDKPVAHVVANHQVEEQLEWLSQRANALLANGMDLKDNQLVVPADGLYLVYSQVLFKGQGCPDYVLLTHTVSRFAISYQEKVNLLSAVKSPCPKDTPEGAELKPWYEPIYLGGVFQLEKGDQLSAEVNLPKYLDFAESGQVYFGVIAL

diabetic mice = conditions: cited from earlier work
crevicular PMNs = conditions: rats with chemically induced diabetes; cited from earlier work

Compound	ratio of exposed root to enamel area, LPS side [1]	ratio of exposed root to enamel area, PBS side [1]	ratio of exposed root to enamel area, LPS side [2]	ratio of exposed root to enamel area, PBS side [2]	difference in the ratios between the LPS and PBS sides [2]	other results
O=C1NC(=O)C2(N1)c1cc(F)ccc1-c1ccc(F)cc12 [imirestat]	0.439±0.043	0.421±0.029	0.412±0.016	0.439±0.0132	no significant difference	alveolar bone loss ([1]; result in words): effective in reducing alveolar bone loss
O=c1c(O)c(-c2ccc(O)c(O)c2)oc2cc(O)cc(O)c12 [quercetin]	0.448±0.057	0.440±0.023	0.406±0.018	0.417±0.042	no significant difference	
COc1ccc2c(C(=S)N(C)CC(=O)O)cccc2c1C(F)(F)F [tolrestat]		0.435±0.010	0.435±0.039	0.422±0.036	no significant difference	reported adverse events leading to market withdrawal [3]: fatalities from hepatic necrosis
Enbrel						prolonged cytokine expression (TNF-α): reversal of the prolonged cytokine expression
N-benzyloxycarbonyl-Val-Ala-Asp-fluoromethyl-ketone [z-VAD-fmk]						healing parameters (fibroblast density, collagen I and III mRNA, matrix formation, bone-lining cells, new bone formation) (diabetic mice): significant improvements in several healing parameters
insulin: insulin administration to diabetic rats						chemotactic response of crevicular PMNs to casein (crevicular PMNs): reverses this decrease
